Inhibition and IC50 data for two compounds are collected here from ChEMBL document CHEMBL5463729, “Data for DCP probe BAY 1753011” (2023).

Data set [1] has as its target Purinergic P2Y (Rattus norvegicus) (UniProt O35811+Q9EPX4+P49651+Q63371+P41232+O35881+Q6GUG4). The data set is described as follows: Inhibition of Purinergic P2Y at compound concentration of 10.0 uM in the Eurofins-Panlabs radioligand binding assay (Eurofins_assay_268820). In kind it is protein assay. Details: ligand concentration 0.1 nM; call rule not given here. Conditions: Compound concentration 10.0 uM.

The next data set has as its target Vasopressin V1a receptor (Homo sapiens, UniProt P37288). Kind of data set: Assay with bioluminescence detection (AVPR1). (The vasopressin receptor cells react to stimulation of the recombinantly expressed V1a receptors by intracellular release of calcium ions, which can be quantified by the resulting photoprotein luminescence). The format is functional, cell-based, CHO-K1.

Data set [2] has as its target Gamma-aminobutyric acid type B receptor subunit 1 (Homo sapiens) (UniProt Q9UBS5). Conditions: Rattus norvegicus; Compound concentration 10.0 uM.
The target in data set [3] is STE20-like serine/threonine-protein kinase (Homo sapiens) (UniProt Q9H2G2). Kind of data set: Inhibition of SLK(h) at 10.0 µM in the Eurofins Kinase panel. Conditions: Compound concentration 10.0 uM.
In data set [4] the target is Fibroblast growth factor receptor 4 (Homo sapiens) (UniProt P22455). The data set is described as follows: Inhibition of FGFR4(h) at 10.0 µM in the Eurofins Kinase panel. The settings on record: Compound concentration 10.0 uM.
Data set [5] addresses Tyrosine-protein kinase ABL1 (Homo sapiens) (UniProt P00519). The data set is described as follows: Inhibition of Abl(h) at 10.0 µM in the Eurofins Kinase panel. Conditions: Compound concentration 10.0 uM.
For data set [6], the target named is Histamine H2 receptor (Homo sapiens) (UniProt P25021). Conditions: Compound concentration 10.0 uM.
Data set [7] addresses Serine/threonine-protein kinase Sgk2 (Homo sapiens) (UniProt Q9HBY8). The data set is described as follows: Inhibition of SGK2(h) at 10.0 µM in the Eurofins Kinase panel. Conditions: Compound concentration 10.0 uM.
For data set [8], the species on record is Mus musculus. Kind of data set: Inhibition of Interleukin IL-1 at 10 µM in the Eurofins-Panlabs radioligand binding assay (Eurofins_assay_243520). The arrangement: ligand concentration 0.1 nM. Conditions: Compound concentration 10.0 uM.
In data set [9] the target is Substance-K receptor (Homo sapiens) (UniProt P21452). Kind of data set: Inhibition of Tachykinin NK2 at 10 µM in the Eurofins-Panlabs radioligand binding assay (Eurofins_assay_255600). The arrangement: ligand concentration 0.5 nM. Conditions: Compound concentration 10.0 uM.
The target in data set [10] is 3-hydroxy-3-methylglutaryl-coenzyme A reductase (Homo sapiens) (UniProt P04035). Kind of data set: Inhibition of HMG-CoA Reductase at compound concentration of 10.0 uM in the Eurofins-Panlabs enzyme assay (Eurofins_assay_124010). The arrangement: substrate with concentration. Conditions: Compound concentration 10.0 uM.
Data set [11] deals with Angiopoietin-1 receptor (Homo sapiens) (UniProt Q02763). The data set is described as follows: Inhibition of Tie2(h) at 10.0 µM in the Eurofins Kinase panel. Conditions: Compound concentration 10.0 uM.
For the next data set, the species on record is Rattus norvegicus. Kind of data set: Inhibition of Glutamate, NMDA, Phencyclidine at 10 µM in the Eurofins-Panlabs radioligand binding assay (Eurofins_assay_233000). Conditions: Compound concentration 10.0 uM. The format is protein-complex assay.
Data set [12] has as its target Prostaglandin G/H synthase 1 (Homo sapiens) (UniProt P23219). Kind of data set: Inhibition of Cyclooxygenase COX-1 at compound concentration of 10.0 uM in the Eurofins-Panlabs enzyme assay (Eurofins_assay_116020). Conditions: Compound concentration 10.0 uM.
The target of another data set is hERG (KCNH2) (Homo sapiens, UniProt Q12809). Kind of data set: Inhibition of Potassium Channel hERG at 10 µM in the Eurofins-Panlabs radioligand binding assay (Eurofins_assay_265900). Details: ligand concentration 1.5 nM, non-specific ligand with concentration Astemizole, incubation time 60 min, incubation temperature 25 °C. Conditions: HEK-293 cells expressing human recombinant hERG, probe [3H] Astemizole, compound concentration 10 uM.

Data set [13] deals with RAC-alpha serine/threonine-protein kinase (Homo sapiens) (UniProt P31749). Kind of data set: Inhibition of PKBalpha(h) at 10.0 µM in the Eurofins Kinase panel. Conditions: Compound concentration 10.0 uM.
The target of data set [14] is GABA-A receptor; anion channel (Rattus norvegicus) (UniProt O09028+P15431+P18506+P18508+P19969+P20236+P23574+P23576+P28471+P28473+P30191+P62813+P63079+P63138+Q91ZM7+Q9ES14). Kind of data set: Inhibition of GABAA, Muscimol, Central at 10 µM in the Eurofins-Panlabs radioligand binding assay (Eurofins_assay_226500). The format is protein-complex assay. Conditions: Compound concentration 10.0 uM.

Data set [15] concerns the target Receptor tyrosine-protein kinase erbB-2 (Homo sapiens) (UniProt P04626). Kind of data set: Inhibition of Protein Tyrosine Kinase, ERBB2 (HER2) at 10 µM in the Eurofins-Panlabs enzyme assay (Eurofins_assay_174020). Conditions: Compound concentration 10.0 uM. The arrangement: substrate with concentration.
For data set [16], the target named is Calcitonin receptor (Homo sapiens) (UniProt P30988). The data set is described as follows: Inhibition of Calcitonin at 10 µM in the Eurofins-Panlabs radioligand binding assay (Eurofins_assay_213610). The settings on record: Compound concentration 10.0 uM.
For data set [17], the target named is Vascular endothelial growth factor receptor 1 (Homo sapiens) (UniProt P17948). The data set is described as follows: Inhibition of Flt1(h) at 10.0 µM in the Eurofins Kinase panel. Conditions: Compound concentration 10.0 uM.
Data set [18] deals with T1, Alpha-1A adrenergic receptor (Homo sapiens) (UniProt P35348).
T1 sequence (whole entry): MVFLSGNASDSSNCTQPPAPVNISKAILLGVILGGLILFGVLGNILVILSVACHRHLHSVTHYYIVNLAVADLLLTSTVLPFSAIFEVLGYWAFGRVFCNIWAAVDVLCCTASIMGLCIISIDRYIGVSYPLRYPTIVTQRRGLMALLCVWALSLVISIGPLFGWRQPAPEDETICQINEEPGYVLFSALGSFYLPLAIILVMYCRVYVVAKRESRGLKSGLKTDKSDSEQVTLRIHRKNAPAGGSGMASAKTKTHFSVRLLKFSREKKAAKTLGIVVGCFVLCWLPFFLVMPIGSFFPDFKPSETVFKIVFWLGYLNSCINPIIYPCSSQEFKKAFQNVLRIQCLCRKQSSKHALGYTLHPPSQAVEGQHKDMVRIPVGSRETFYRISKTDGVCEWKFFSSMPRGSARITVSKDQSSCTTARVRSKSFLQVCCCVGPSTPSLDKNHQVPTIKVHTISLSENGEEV
Conditions: Rattus norvegicus; Compound concentration 10.0 uM.

For another data set, the species on record is Homo sapiens. The data set is described as follows: Inhibition of Phosphodiesterase PDE4 at compound concentration of 10.0 uM in the Eurofins-Panlabs enzyme assay (Eurofins_assay_154000). The arrangement: substrate with concentration 1.01 uM [3 H]cAMP + cAMP, incubation time 20 min, incubation temperature 25 C. Conditions: Compound concentration 10.0 uM. In kind it is protein assay.

The species named for data set [19] is Mus musculus. The data set is described as follows: Inhibition of Phorbol Ester at 10 µM in the Eurofins-Panlabs radioligand binding assay (Eurofins_assay_264500). The arrangement: ligand concentration 3 nM. Conditions: Compound concentration 10.0 uM.
The target in data set [20] is voltage-gated sodium channel, site 2 (Rattus norvegicus, UniProt F1LQQ7+O08562+O88420+O88457+P04774+P04775+P08104+P15389+P15390+Q62968). The data set is described as follows: Inhibition of Sodium Channel, Site 2 at 10 µM in the Eurofins-Panlabs radioligand binding assay (Eurofins_assay_279510). The settings on record: male, Wistar, rat whole brain (except cerebellum) membranes, probe [3H] Batrachotoxinin, compound concentration 10 uM. Details: ligand concentration 5 nM, non-specific ligand with concentration 100 µM Veratridine, incubation time 60 min, incubation temperature 37 °C. The format is protein assay.

Data set [21] has as its target Histamine H3 receptor (Homo sapiens) (UniProt Q9Y5N1). The settings on record: Compound concentration 10.0 uM.
In data set [22] the target is Vasoactive intestinal polypeptide receptor 1 (Homo sapiens) (UniProt P32241). Kind of data set: Inhibition of Vasoactive Intestinal Peptide VIP1 at 10 µM in the Eurofins-Panlabs radioligand binding assay (Eurofins_assay_287010). The settings on record: Compound concentration 10.0 uM.
Data set [23] addresses Glycogen synthase kinase-3 beta (Homo sapiens) (UniProt P49841). Kind of data set: Inhibition of GSK3beta(h) at 10.0 µM in the Eurofins Kinase panel. Conditions: Compound concentration 10.0 uM.

Sequence of Histamine H2 receptor (Homo sapiens) (P25021 whole entry): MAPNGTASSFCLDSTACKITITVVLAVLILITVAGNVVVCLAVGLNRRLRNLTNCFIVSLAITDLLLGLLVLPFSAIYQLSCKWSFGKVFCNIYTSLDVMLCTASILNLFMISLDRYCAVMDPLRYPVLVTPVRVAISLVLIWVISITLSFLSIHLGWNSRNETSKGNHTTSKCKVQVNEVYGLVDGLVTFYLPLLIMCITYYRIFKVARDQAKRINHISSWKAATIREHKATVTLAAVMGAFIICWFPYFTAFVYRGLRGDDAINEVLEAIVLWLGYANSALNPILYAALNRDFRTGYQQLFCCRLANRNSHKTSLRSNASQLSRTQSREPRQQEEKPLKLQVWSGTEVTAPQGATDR
Sequence of Substance-K receptor (Homo sapiens) (P21452 whole entry): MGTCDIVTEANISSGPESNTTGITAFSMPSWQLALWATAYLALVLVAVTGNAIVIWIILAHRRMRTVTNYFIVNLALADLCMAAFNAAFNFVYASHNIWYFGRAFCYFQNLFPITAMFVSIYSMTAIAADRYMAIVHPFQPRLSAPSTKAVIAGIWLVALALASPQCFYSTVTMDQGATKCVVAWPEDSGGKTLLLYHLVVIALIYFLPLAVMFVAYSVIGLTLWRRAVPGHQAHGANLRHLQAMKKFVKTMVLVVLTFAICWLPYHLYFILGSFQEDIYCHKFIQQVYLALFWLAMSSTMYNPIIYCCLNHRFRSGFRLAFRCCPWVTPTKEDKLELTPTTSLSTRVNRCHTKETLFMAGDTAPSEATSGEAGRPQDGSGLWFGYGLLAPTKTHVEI
Sequence of Tyrosine-protein kinase ABL1 (Homo sapiens) (P00519 whole entry): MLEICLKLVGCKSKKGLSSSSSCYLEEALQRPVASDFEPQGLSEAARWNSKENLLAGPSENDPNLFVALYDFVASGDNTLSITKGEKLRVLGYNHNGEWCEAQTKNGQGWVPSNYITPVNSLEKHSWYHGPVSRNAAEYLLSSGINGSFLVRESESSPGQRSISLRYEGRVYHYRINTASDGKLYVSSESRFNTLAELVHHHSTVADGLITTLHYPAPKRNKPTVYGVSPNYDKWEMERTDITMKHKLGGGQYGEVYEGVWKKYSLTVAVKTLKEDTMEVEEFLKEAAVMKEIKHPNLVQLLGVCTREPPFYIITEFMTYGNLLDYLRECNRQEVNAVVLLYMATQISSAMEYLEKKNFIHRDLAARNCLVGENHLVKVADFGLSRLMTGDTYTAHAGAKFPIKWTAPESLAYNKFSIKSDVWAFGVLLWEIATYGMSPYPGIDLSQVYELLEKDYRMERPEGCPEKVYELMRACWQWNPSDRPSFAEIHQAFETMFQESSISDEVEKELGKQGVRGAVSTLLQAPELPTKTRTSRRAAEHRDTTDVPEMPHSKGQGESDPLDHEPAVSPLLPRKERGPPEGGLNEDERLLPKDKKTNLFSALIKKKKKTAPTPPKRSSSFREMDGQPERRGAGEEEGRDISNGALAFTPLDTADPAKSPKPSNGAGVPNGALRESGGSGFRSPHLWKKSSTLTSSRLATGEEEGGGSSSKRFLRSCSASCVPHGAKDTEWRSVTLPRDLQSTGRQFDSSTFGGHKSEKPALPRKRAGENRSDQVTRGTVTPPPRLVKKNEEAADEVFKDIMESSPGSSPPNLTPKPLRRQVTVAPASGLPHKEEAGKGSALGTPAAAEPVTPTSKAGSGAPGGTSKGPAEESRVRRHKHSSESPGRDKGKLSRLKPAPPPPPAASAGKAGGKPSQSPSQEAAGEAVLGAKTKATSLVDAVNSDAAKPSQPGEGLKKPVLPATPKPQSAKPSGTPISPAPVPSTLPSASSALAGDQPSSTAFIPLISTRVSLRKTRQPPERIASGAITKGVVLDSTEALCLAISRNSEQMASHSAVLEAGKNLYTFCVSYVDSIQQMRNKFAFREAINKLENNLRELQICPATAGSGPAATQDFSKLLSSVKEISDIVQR
Sequence of Fibroblast growth factor receptor 4 (Homo sapiens) (P22455 22-802 limits assumed): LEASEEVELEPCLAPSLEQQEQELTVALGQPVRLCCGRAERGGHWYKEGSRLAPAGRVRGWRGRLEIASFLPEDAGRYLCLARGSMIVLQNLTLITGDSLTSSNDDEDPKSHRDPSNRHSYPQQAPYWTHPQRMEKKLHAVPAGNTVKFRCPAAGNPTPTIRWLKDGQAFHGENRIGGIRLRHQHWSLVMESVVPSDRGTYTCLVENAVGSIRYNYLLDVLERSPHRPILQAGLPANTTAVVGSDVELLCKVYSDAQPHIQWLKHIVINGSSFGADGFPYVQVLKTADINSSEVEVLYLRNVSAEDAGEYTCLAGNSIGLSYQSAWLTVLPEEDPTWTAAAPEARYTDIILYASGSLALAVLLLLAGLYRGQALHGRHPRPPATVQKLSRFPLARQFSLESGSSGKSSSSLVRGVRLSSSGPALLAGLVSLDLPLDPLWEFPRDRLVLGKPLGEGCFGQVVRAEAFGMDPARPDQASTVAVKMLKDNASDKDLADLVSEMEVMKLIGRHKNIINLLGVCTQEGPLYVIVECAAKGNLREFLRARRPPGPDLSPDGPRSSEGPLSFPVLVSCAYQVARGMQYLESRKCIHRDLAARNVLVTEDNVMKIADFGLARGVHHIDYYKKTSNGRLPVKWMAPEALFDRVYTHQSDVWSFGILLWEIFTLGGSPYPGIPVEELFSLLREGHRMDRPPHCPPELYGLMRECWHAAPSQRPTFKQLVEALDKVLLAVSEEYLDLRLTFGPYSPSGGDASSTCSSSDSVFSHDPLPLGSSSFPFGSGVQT
Sequence of Serine/threonine-protein kinase Sgk2 (Homo sapiens) (Q9HBY8 whole entry): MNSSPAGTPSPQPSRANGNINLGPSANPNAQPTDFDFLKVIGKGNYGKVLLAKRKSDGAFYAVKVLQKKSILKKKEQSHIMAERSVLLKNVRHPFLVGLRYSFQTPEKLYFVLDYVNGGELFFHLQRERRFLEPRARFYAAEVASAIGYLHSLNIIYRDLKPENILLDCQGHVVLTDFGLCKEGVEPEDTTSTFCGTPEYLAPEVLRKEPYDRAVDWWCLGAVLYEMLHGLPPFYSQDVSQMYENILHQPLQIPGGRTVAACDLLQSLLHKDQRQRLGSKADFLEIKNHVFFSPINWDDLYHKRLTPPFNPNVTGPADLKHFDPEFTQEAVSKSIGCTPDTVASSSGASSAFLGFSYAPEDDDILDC
Sequence of RAC-alpha serine/threonine-protein kinase (Homo sapiens) (P31749 whole entry): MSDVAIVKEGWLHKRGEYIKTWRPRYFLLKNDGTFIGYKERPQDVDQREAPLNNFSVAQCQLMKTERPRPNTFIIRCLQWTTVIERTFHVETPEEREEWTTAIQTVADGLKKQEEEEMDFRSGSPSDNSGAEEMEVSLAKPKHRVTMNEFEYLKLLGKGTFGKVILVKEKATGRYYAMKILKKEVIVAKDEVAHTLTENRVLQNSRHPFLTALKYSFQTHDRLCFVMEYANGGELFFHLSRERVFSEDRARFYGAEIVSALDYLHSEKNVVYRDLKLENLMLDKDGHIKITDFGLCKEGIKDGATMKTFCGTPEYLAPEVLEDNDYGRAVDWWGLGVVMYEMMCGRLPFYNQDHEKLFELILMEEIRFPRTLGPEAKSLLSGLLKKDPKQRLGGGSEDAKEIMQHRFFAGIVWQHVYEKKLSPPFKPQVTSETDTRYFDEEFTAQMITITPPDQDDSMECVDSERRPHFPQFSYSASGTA
Sequence of Vascular endothelial growth factor receptor 1 (Homo sapiens) (P17948 whole entry): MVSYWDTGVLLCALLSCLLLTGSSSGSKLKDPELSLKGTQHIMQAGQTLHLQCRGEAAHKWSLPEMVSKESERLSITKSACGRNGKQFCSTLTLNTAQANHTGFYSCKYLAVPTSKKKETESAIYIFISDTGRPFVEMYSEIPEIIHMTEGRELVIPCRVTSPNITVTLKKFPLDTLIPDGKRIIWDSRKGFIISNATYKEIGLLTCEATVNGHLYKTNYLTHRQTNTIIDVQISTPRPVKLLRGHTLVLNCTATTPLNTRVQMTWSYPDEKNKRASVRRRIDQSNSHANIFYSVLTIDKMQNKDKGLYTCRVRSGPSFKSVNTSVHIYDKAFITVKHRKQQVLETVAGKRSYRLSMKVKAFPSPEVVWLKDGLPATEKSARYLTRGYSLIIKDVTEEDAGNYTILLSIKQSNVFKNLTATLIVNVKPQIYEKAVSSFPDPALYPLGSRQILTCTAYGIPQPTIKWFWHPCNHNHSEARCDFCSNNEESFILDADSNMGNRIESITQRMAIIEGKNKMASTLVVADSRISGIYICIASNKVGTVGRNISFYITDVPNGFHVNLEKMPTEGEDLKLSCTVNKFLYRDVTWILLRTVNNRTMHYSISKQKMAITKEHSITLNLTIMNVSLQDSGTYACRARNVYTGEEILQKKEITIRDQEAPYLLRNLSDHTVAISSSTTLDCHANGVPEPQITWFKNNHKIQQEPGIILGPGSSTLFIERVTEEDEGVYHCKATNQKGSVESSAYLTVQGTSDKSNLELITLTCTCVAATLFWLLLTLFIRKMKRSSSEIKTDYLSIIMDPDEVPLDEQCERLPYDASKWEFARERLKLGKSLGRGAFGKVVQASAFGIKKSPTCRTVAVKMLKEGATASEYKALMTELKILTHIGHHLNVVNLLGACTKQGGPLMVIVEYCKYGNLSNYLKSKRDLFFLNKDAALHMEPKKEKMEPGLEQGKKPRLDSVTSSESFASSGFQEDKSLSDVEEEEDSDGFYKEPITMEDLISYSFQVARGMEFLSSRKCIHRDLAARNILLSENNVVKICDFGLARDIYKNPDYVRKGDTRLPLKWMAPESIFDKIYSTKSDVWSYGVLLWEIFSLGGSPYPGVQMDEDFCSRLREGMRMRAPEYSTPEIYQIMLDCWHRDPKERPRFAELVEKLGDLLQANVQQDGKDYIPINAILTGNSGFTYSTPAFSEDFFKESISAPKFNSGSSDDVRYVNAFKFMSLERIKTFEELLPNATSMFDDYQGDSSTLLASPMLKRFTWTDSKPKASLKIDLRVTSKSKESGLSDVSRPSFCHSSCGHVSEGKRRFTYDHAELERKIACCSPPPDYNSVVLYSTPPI

In general, inhibition refers to the relative decrease from the control value, in per cent. A word on the IC50: it is the point on the concentration scale where inhibition reaches its midpoint. `O=c1n(Cc2cncn2-c2cccc(Cl)c2)nc(-c2ccc(Cl)cc2)n1C[C@H](O)C(F)(F)F`: the inhibition in [1] was 4%; in [2], 8%; in data set [3], 0.22%; in [4], -8.35%; in data set [5] it was -3.62%; in data set [6], 20%. In addition, the inhibition in [7] is -3.39%. The IC50 at Vasopressin V1a receptor was > 10 µM (not active).

`C[C@H](O)c1nc(Cn2nc(-c3ccc(Cl)cc3)n(C[C@H](O)C(F)(F)F)c2=O)nn1-c1cccc(Cl)c1` [PECAVAPTAN]: the inhibition was 15% in the data set listed under Mus musculus [8]; 30% in data set [9]; 9% in data set [10]; -8.17% in [11]; 14% in the data set filed under Rattus norvegicus; -3% in data set [12]. For the same compound, the inhibition in [13] was -3.88%; in data set [14], -2%; in data set [15], 15%; in data set [16], -7%; in data set [17], -9.22%; in data set [18], 23%. Also, the inhibition in the data set listed under Homo sapiens is -4%; in the data set listed under Mus musculus [19], 3%; in data set [21] it was -1%; in data set [22] it was 10%; in data set [23] it was -4.15%. The values for the inhibition at 60 min, 10 µM (at hERG (KCNH2); in data set [20]) were -3% (not active) and 42% (not active), respectively.
